Assays:
[1] = Partition equilibrium under the influence of salinity (NaCl), glass reactor, neutralization titration; assay type: physicochemical; conditions: for Salting out effect (reduction in the number of moles contained in the aqueous phase): 30% (m·v^−1) NaCl versus tests without salinity
Procedure: The variation in salinity (and its effect on acidic species) is due to the large variation in salinity found between the portions of bottom-hole water, middle-well water and surface water. Thus, systems with salinity (i.e., NaCl) between 3.5 and 30% (m·v^−1) were tested in a glass reactor, and neutralization titration was performed (in triplicate analysis), as previously described. Furthermore, the experimental results were generated in triplicate, using 99% NaCl (Sigma-Aldrich) with five acidic species.

[2] = Partition equilibrium in the presence of demulsifiers (Dissolvan 961, Dissolvan 974)
Description: Finally, neutralization titration with a standardized NaOH titrant solution was used to determine the effect on the partition equilibrium for four acidic species (the same as in the other examples, except for dicyclohexylacetic acid).

[3] = Partition equilibrium with addition of calcium and strontium salts to the aqueous phase; assay type: physicochemical; conditions: for Effect of strontium ions on migration to the aqueous phase: strontium 400-2600 mg·L^−1
Procedure: The addition of salts to the reaction system is of fundamental importance when one intends to mimic field conditions. In this sense, in addition to continuing the study of the salinity effect (Example 4), the insertion of salts containing Ca^2+ and Sr^2+ ions, known to be present in seawater, was tested. To this end, the projects were based on the literature (Zheng, J. et al. Offshore produced water management: A review of current practice and challenges in harsh/Arctic environments. Mar. Pol. Bul. 2016, 104, 7-19) and four concentrations of each of the two ions were evaluated (400.0, 1200.0, 2600.0 and 9000.0 mg·L^−1), maintaining salinity at 3.5% (m·v^−1).
In short, the experimental results were generated in triplicate, using 99% NaCl to add salinity to the aqueous fraction and PA calcium chloride and PA strontium chloride to add calcium and strontium, respectively.
The addition of calcium and strontium to the reaction system, in the form of salts, aims at mimicking the real scenario in which both species are present (regardless of the salinity of the medium), especially in the well condition. This study aimed at understanding the effect (on the migration of acids to the organic phase) of this ion in the system also at concentrations higher than 10 mM. Finally, the experiments (in triplicate) with divalent strontium ions followed the same rationale.

[4] = Salinity 3.5 (%, m · m^−1) NaCl
[5] = Salinity 18.0 (%, m · m^−1) NaCl
[6] = Salinity 30.0 (%, m · m^−1) NaCl
[7] = Absence of ions (no demulsifier), salinity 3.5%
[8] = Calcium 400 mg · L^−1, salinity 3.5%
[9] = Calcium 1200 mg · L^−1, salinity 3.5%
[10] = Calcium 2600 mg · L^−1, salinity 3.5%
[11] = Strontium 400 mg · L^−1, salinity 3.5%
[12] = Strontium 1200 mg · L^−1, salinity 3.5%
[13] = Strontium 2600 mg · L^−1, salinity 3.5%

SMILES | Salting out effect (reduction in the number of moles contained in the aqueous phase) [1] | Migration [1, 4] | Migration [1, 5] | Migration [1, 6] | Migration [2, 7] | Migration ([2]; D961 50 mg · L^−1) | Migration ([2]; D961 100 mg · L^−1) | Migration ([2]; D961 1000 mg · L^−1) | Migration ([2]; D974 50 mg · L^−1) | Migration ([2]; D974 100 mg · L^−1) | Migration ([2]; D974 1000 mg · L^−1) | Migration ([3]; Absence of ions, salinity 3.5%) | Migration [3, 8] | Migration [3, 9] | Migration [3, 10] | Migration [3, 11] | Migration [3, 12] | Migration [3, 13] | Effect of strontium ions on migration to the aqueous phase [3] | also measured
O=C(O)c1ccccc1 [Benzoic Acid, benzoic acid] | approximately 400% | 83.0 %, mol | 41.0 %, mol | 22.5 %, mol | 82.0 %, mol | 62.3 %, mol | 70.3 %, mol | 68.4 %, mol | 63.1 %, mol | 57.3 %, mol | 59.7 %, mol | 82.0 %, mol | 80.0 %, mol | 56.7 %, mol | 56.7 %, mol | 83.0 %, mol | 83.0 %, mol | 83.0 %, mol | – | Migration ([1]; Salinity 30.0 (%, m · m^−1) NaCl, listed as benzoic acid): 22.51 %, mol; Extent of salting out effect in the presence of calcium ([3]; calcium ions, salinity 3.5%): greater than 30%; Migration to the aqueous phase in the presence of strontium ([3]; strontium ions): above 80 % (m·v^−1)
O=C(O)CCCCC1CCCCC1 [Cyclohexanepentanoic Acid, cyclohexanepentanoic acid] | – | 5.5 %, mol | 5.5 %, mol | 4.8 %, mol | 4.9 %, mol | 5.42 %, mol | 5.16 %, mol | 10.2 %, mol | 4.78 %, mol | 5.26 %, mol | 12.80 %, mol | 4.9 %, mol | 5.5 %, mol | 4.7 %, mol | 4.8 %, mol | 4.4 %, mol | 5.3 %, mol | 4.8 %, mol | no effect | Migration to aqueous medium, approximate level over the salinity study ([1]; 0-30% NaCl): ~5%; Effect of the addition of salinity on migration ([1]; 3.5-30% NaCl, 95% reliability): no significant effect; Increase in migration to the aqueous phase with demulsifier ([2]; addition of 1000 mg·L^−1 demulsifier): ~100%; Effect of calcium ion on migration to the aqueous phase ([3]; calcium up to the maximum study concentrations): no variation in migration
CCCCC(=O)O [Pentanoic Acid, pentanoic acid] | approximately 300% | 73.3 %, mol | 40.0 %, mol | 23.3 %, mol | 77.0 %, mol | 67.0 %, mol | 70.0 %, mol | 75.7 %, mol | 66.9 %, mol | 74.3 %, mol | 74.8 %, mol | 77.0 %, mol | 90.0 %, mol | 98.7 %, mol | 96.7 %, mol | 100.0 %, mol | 100.0 %, mol | 100.0 %, mol | increase in migration | Effect of demulsifiers on partition equilibrium ([2]; up to 1000 mg·L^−1, 95% significance): no observable effect; Migration ([3]; Calcium 400 mg · L^−1, salinity 3.5%, listed as pentanoic acid): ~100 %, mol

Reference: US20250231157A1, “METHOD FOR DETERMINING THE PARTITION OF NAPHTHENIC ACIDS FROM A PRODUCTION WATER MIMICKING SYSTEM AND MIMICKING SYSTEM” (PETRÓLEO BRASILEIRO S.A. – PETROBRAS, priority 2023, published 2025)
